Like-named read-outs stand apart in the source and are kept apart here. Marks after values point to notes of the source that are not given here.
Legend:
S. gordonii [1] = assay: Growth on agar with berberine and/or methylene blue (efflux screen); type: cell-based
S. gordonii [2] = assay: Relative cell surface hydrophobicity (hexanes partition); type: cell-based
P. gingivalis = assay: as above; type: cell-based
S. mutans [3] = assay: Growth on agar with berberine and/or methylene blue (efflux screen); type: cell-based
F. nucleatum [4] = assay: Relative cell surface hydrophobicity (hexanes partition); type: cell-based
A. actinomycetemcomitans [5] = assay: as above; type: cell-based
S. mutans [6] = assay: as above; type: cell-based
S. mutans [7] = assay: Viability assessment (bactericidal activity); type: cell-based
Protocol: (§1) Two representative organisms, S. mutans and F. nucleatum, were used in this study. […] Aliquots of 4 ml of agent, prepared in sterile water, were placed into sterile test tubes and 1 ml of adjusted cells was added. The control consisted of 4 ml of PBS and 1 ml of cells. Samples were removed at 0, 15, 30, and 60 minutes, serial dilutions were performed, and the appropriate dilutions plated out. The plates were incubated at 37° C. under appropriate atmospheric conditions for up to 72 hours. Viable colony counts were determined and compared to nontreated control Percentage kill was calculated using the formula: ([…]×100. Log reduction was also calculated on Log10 transformed data. Effect of Berberine on Cell Surface Hydrophobicity

F. nucleatum [8] = assay: Viability assessment (bactericidal activity); type: cell-based
Protocol: as §1

A. actinomycetemcomitans [9] = assay: Accumulation of berberine, fluorimetric assay; type: cell-based; conditions: CCCP 100 μM added five minutes after berberine; FIG. 1
Protocol: Accumulation of berberine in A. actinomycetemcomitans was evaluated using a fluorimetric assay (based in Giraud et al., 2000). Overnight cells were harvested as previously described, washed twice with 50 mM sodium phosphate buffer (pH 7), resuspended in the same buffer at a concentration of 1×10^9 CFU ml^−1. The cells were equilibrated for 10 minutes at 37° C. Berberine was added at a final concentration of 500 μg ml^−1. After addition of berberine, 0.5 ml samples were removed at different time intervals. Five minutes after the addition of berberine, the efflux pump inhibitor carbonyl cyanide m-chlorophenylhydrazone (CCCP) was added to the reaction mixture (final concentration 100 μM). The samples were immediately diluted with 1 ml ice-cold sodium phosphate buffer and then were centrifuged for 5 minutes at 560.0×g. The pellet was washed once with 1 ml ice-cold buffer and resuspended in 1 ml of 0.1 M glycine hydrochloride (pH 3) for at least 15 hours at room temperature. The fluorescence of the supernatant was measured (excitation 355 nm and emission 517 nm) with a spectrofluorimeter (Model 810/814, Photon Technology International, Monmouth Junction, N.J.).

test bacteria = assay: Relative cell surface hydrophobicity, statements on the test bacteria; type: cell-based; conditions: summary of Table 12
Escherichia coli [10] = assay: MIC microdilution assay; type: cell-based; conditions: E. coli, agent alone, read-out: MIC of the antimicrobial agents alone
Streptococcus mutans [11] = assay: Combination determination (FIC, MIC in combination); type: cell-based; conditions: S. mutans
Protocol: (§2) The alkaloids were tested in pair-wise combinations (fractional inhibitory concentrations, FIC) against all the bacteria to determine whether interactions were antagonistic (FIC>1), additive (0.5<FIC<1), or synergistic (FIC<0.5). The FIC was calculated by the following: (MIC Acombination/MIC Aalone)+(MIC Bcombination/MIC Balone). Where A represents compound 1 and B represents compound 2. […] In the case of A. actinomycetemcomitans and P. aeruginosa, CHX was used at 0.78 to 50 μg ml^−1. Berberine (B-CG and B-S) was used at concentrations 0.9 to 250 μg ml^−1. The antibacterial efficacy of berberine (1.95 to 500 μg ml^−1) was tested in combination against P. aeruginosa with CHX (0.78 to 50 μg ml^−1) (Sigma Chemicals) and the polymyxin antibiotic Col (0.04 to 25 μg ml^−1) (Sigma Chemicals). The plates were incubated for 24 hours.
CHX was diluted from left to right at 10 to 0.08 μg ml^−1 ([…] 1 to 8), berberine was diluted from top to bottom at 250 to 0.09 μg ml^−1 ([…] 1 to 8). Column 9 was the cell control, column 10 was berberine alone (250 to 0.09 μg ml^−1); and column 11 was CHX alone (10 to 0.08 μg ml^−1). Row H was the solvent control (8% DMSO, H1 to H8). Column 12 was the media blank. The dilution assay was designed such that A1 contained the highest concentration of both agents (berberine 250 μg ml^−1 and CHX 10 μg ml^−1). The final concentration of berberine in wells A2 to A8 was […]. The FIC value was calculated from well C6. FIC was calculated by: (MIC Acombination/MIC Aalone)+(MIC Bcombination/MIC Balone).

Porphymonas gingivalis [12] = assay: MIC microdilution assay; type: cell-based; conditions: Porphyromonas gingivalis, P. gingivalis
oral pathogens = assay: Combination determination, statements on the oral pathogens; type: cell-based; conditions: berberine hydrochloride / berberine (B-CG and B-S)
Protocol: as §2

Streptococcus gordonii [13] = assay: MIC microdilution assay; type: cell-based; conditions: Streptococcus gordonii, S. gordonii
Fusobacterium nucleatum [14] = assay: MIC microdilution assay; type: cell-based; conditions: Fusobacterium nucleatum, F. nucleatum
Staphylococcus aureus [15] = assay: MIC microdilution assay; type: cell-based; conditions: S. aureus, agent alone, read-out: MIC of the antimicrobial agents alone
[16] = system: Actinobacillus actinomycetemcomitans; assay: MIC microdilution assay; type: cell-based; conditions: Aggregatibacter actinomycetemcomitans
Streptococcus mutans [17] = assay: MIC microdilution assay; type: cell-based; conditions: Streptococcus mutans, S. mutans
Pseudomonas aeruginosa [18] = assay: MIC microdilution assay; type: cell-based; conditions: Pseudomonas aeruginosa; P. aeruginosa; agent alone; read-out: MIC of the antimicrobial agents alone
Staphylococcus aureus [19] = assay: Combination determination (FIC, MIC in combination); type: cell-based; conditions: S. aureus
Protocol: as §2

Pseudomonas aeruginosa [20] = assay: as above; type: cell-based; conditions: P. aeruginosa
Protocol: as §2

Streptococcus gordonii [21] = assay: as above; type: cell-based; conditions: S. gordonii
Protocol: as §2

Escherichia coli [22] = assay: as above; type: cell-based; conditions: E. coli
Protocol: as §2

[23] = system: Actinobacillus actinomycetemcomitans; assay: as above; type: cell-based; conditions: A. actinomycetemcomitans grown under anaerobic conditions; berberine (B-CG) combined with CHX, Tet or Dox; MIC of the named agent in the combination
Protocol: as §2

Fusobacterium nucleatum [24] = assay: as above; type: cell-based; conditions: F. nucleatum
Protocol: as §2

Porphymonas gingivalis [25] = assay: as above; type: cell-based; conditions: P. gingivalis
Protocol: as §2

[26] = rats; oral; tritiated; cited from earlier work
wild type S. aureus = conditions: cited from earlier work
[27] = agar with 62.5, 125, 250 μg ml^−1, 48 hours at 37° C.
[28] = berberine (B-CG) combined with CHX, Tet or Dox, MIC of the named agent in the combination
[29] = agent alone, read-out: MIC of the antimicrobial agents alone
[30] = berberine hydrochloride / chloride

## COc1ccc2cc3[n+](cc2c1OC)CCc1cc2c(cc1-3)OCO2 [B-CG, berberine chloride]
S. gordonii [1]; [27]
  Concentration of B-CG in agar at which growth occurred: 62.5 µg/mL
S. gordonii [2]; berberine 500 μg ml^−1
  Typical reduction scores on relative cell surface hydrophobicity: 26.1%
P. gingivalis; berberine 500 μg ml^−1
  Typical reduction scores on relative cell surface hydrophobicity: 26.7%
S. mutans [3]; [27]
  Concentration of B-CG in agar at which growth occurred: 62.5 µg/mL
F. nucleatum [4]; berberine 500 μg ml^−1
  Typical reduction scores on relative cell surface hydrophobicity: 29.9%
A. actinomycetemcomitans [5]; berberine 500 μg ml^−1
  Typical reduction scores on relative cell surface hydrophobicity: −31.6%
S. mutans [6]; berberine 500 μg ml^−1
  Typical reduction scores on relative cell surface hydrophobicity: 14.8%
S. mutans [7]; B-CG (500) μg ml^−1
  Viability after 60 min exposure (mean Log10 reduction of CFU): 0 Log10
S. mutans [7]; B-CG (1000) μg ml^−1
  Viability after 60 min exposure (mean Log10 reduction of CFU): 1 Log10
F. nucleatum [8]; B-CG (500) μg ml^−1
  Viability after 60 min exposure (mean Log10 reduction of CFU): 2.77 Log10
F. nucleatum [8]; B-CG (1000) μg ml^−1
  Viability after 60 min exposure (mean Log10 reduction of CFU): 3.22 Log10

## N#CC(C#N)=NNc1cccc(Cl)c1 [CCCP, carbonyl cyanide m-chlorophenylhydrazone]
A. actinomycetemcomitans [9]
  Effect on berberine accumulation: very rapid and marked increase in berberine accumulation

## [H]/N=C(\N/C(=N/[H])NCCCCCCNC(=N)NC(=N)Nc1ccc(Cl)cc1)Nc1ccc(Cl)cc1 [CHX, chlorhexidine gluconate]
Test bacteria
  Effect on the relative hydrophobicity of the cells: did not appear to affect
Escherichia coli [10]
  MIC: 1.25 µg/mL
Streptococcus mutans [11]; [28]
  MIC of the antimicrobial agents in combination: 0.04 µg/mL
Streptococcus mutans [11]; fraction of the amount alone
  Approximate amount of antibiotic required when combined with berberine relative to when the agent is used alone: <½
Streptococcus mutans [11]; same plate, 48 h
  MIC alone used for the FIC: 1.25 µg/mL
Streptococcus mutans [11]; well C6, berberine (B-G) with CHX, 48 h
  MIC in combination used for the FIC: 0.3125 µg/mL
Porphymonas gingivalis [12]; [29]
  MIC: 1.25 µg/mL
Porphymonas gingivalis [12]; Pg, read-out: MIC of Goldenseal Alkaloids Against Selected Oral Pathogens
  MIC: 2.5 µg/mL
Oral pathogens
  Growth inhibition effect when combined with berberine: synergistic
S. gordonii [2]; agent alone 5 μg ml^−1
  Typical reduction scores on relative cell surface hydrophobicity: −6.3%
Streptococcus gordonii [13]; [29]
  MIC: 5 µg/mL
Streptococcus gordonii [13]; Sg, read-out: MIC of Goldenseal Alkaloids Against Selected Oral Pathogens
  MIC: 5 µg/mL
Fusobacterium nucleatum [14]; [29]
  MIC: 2.5 µg/mL
Fusobacterium nucleatum [14]; Fn, read-out: MIC of Goldenseal Alkaloids Against Selected Oral Pathogens
  MIC: 2.5 µg/mL
P. gingivalis; agent alone 5 μg ml^−1
  Typical reduction scores on relative cell surface hydrophobicity: −2.7%
Staphylococcus aureus [15]
  MIC: 2.5 µg/mL
[16]; A. actinomycetemcomitans grown under anaerobic conditions, agent alone, read-out: MIC of the antimicrobial agents alone
  MIC: 50 µg/mL
[16]; Aa, A. actinomycetemcomitans, read-out: MIC of Goldenseal Alkaloids Against Selected Oral Pathogens
  MIC: 50 µg/mL
Streptococcus mutans [17]; [29]
  MIC: 1.25 µg/mL
Streptococcus mutans [17]; Sm, read-out: MIC of Goldenseal Alkaloids Against Selected Oral Pathogens
  MIC: 1.25 µg/mL
Pseudomonas aeruginosa [18]
  MIC: 6.25 µg/mL
F. nucleatum [4]; agent alone 5 μg ml^−1
  Typical reduction scores on relative cell surface hydrophobicity: 3.7%
A. actinomycetemcomitans [5]; agent alone 5 μg ml^−1
  Typical reduction scores on relative cell surface hydrophobicity: −2.6%
S. mutans [6]; agent alone 5 μg ml^−1
  Typical reduction scores on relative cell surface hydrophobicity: 5.1%
S. mutans [7]; CHX (20) μg ml^−1
  Viability after 60 min exposure (mean Log10 reduction of CFU): 1.69 Log10
F. nucleatum [8]; CHX (20)
  Viability after 60 min exposure (mean Log10 reduction of CFU): 3.09* Log10
Staphylococcus aureus [19]; [28]
  MIC of the antimicrobial agents in combination: 0.63 µg/mL
Staphylococcus aureus [19]; [30]
  Growth inhibition effect when combined with berberine: synergistic
Staphylococcus aureus [19]; fraction of the amount alone
  Approximate amount of antibiotic required when combined with berberine relative to when the agent is used alone: ½
Pseudomonas aeruginosa [20]
  Interaction when combined with berberine: no clear additive or synergistic effect
Pseudomonas aeruginosa [20]; berberine combined with CHX or Col, MIC of the named agent in the combination
  MIC of the antimicrobial agents in combination: 3.13** μg ml^−1
Streptococcus gordonii [21]; [28]
  MIC of the antimicrobial agents in combination: 0.63 µg/mL
Streptococcus gordonii [21]; fraction of the amount alone
  Approximate amount of antibiotic required when combined with berberine relative to when the agent is used alone: <½
Escherichia coli [22]; [28]
  MIC of the antimicrobial agents in combination: 0.63 µg/mL
Escherichia coli [22]; [30]
  Growth inhibition effect when combined with berberine: synergistic
Escherichia coli [22]; fraction of the amount alone
  Approximate amount of antibiotic required when combined with berberine relative to when the agent is used alone: ½
[23]
  MIC of the antimicrobial agents in combination: 50 µg/mL
Fusobacterium nucleatum [24]; [28]
  MIC of the antimicrobial agents in combination: 0.31 µg/mL
Fusobacterium nucleatum [24]; fraction of the amount alone
  Approximate amount of antibiotic required when combined with berberine relative to when the agent is used alone: <½
Porphymonas gingivalis [25]; [28]
  MIC of the antimicrobial agents in combination: 0.08 µg/mL
Porphymonas gingivalis [25]; fraction of the amount alone
  Approximate amount of antibiotic required when combined with berberine relative to when the agent is used alone: <½

## COc1ccc2cc3[n+](cc2c1OC)CCc1cc2c(cc1-3)OCO2 [berberine chloride]
[26]
  Excretion after 48 hours: majority of the administered dose had been excreted in feces
  Time of peak levels in liver and muscles: 12 h

## CN(C)c1ccc2nc3ccc(=[N+](C)C)cc-3sc2c1 [methylene blue (MB), methylene blue]
S. gordonii [1]; 50 μg/ml
  Growth on agar in the presence of methylene blue: did not grow
S. mutans [3]; 50 μg/ml
  Growth on agar in the presence of methylene blue: did not grow

## COC(=O)[C@H]1[C@H]2C[C@@H]3c4[nH]c5cc(OC)ccc5c4CCN3C[C@H]2C[C@@H](OC(=O)c2cc(OC)c(OC)c(OC)c2)[C@@H]1OC [reserpine]
Wild type S. aureus
  Inhibition of the efflux of norfloxacin: at least four

— patent publication US20070098649A1, “Method and composition for controlling oral pathogens” (priority 2004, published 2007)
